These results are taken from patent US12168013B2, “Antiviral prodrugs and nanoformulations thereof” (Board of Regents of the University of Nebraska, priority 2018, dated 2024).

What is called solubility is how much of the substance goes into solution per volume. The EC50 is the midpoint of the concentration-response curve. A lower EC50 goes with a more potent agent. What is called aqueous solubility is how much of the substance goes into solution per volume. Read a low aqueous solubility as little dissolved substance.

Converted amounts (≈) assume the structure as drawn. “And” between values parts separate entries of the source, which are not always exact repeats. Equal entries are not always repeated.

The nature of one series: Aqueous solubility. The series is classed as physicochemical. Particulars: optima water, room temperature; for solubility at 24 h: thermodynamic from solid; for aqueous solubility: 24 hours. Here is the method: The aqueous solubility of CAB, MCAB, M2CAB and M3CAB in optima water was determined by adding the excess drug or prodrug powder in 1 mL water to make the saturated aqueous solution. The mixture was stirred for 24 hours at room temperature. Further, the solution was centrifuged at 14000 rpm for 10 minutes to pellet the undissolved powder. The supernatant was collected, lyophilized and dissolved in methanol for the drug content analysis by UPLC UV/Vis.

Another series has as its system HIV-1ADA. Put plainly: Half-maximum effective concentration (EC50) assay, HIV-1 RT activity in MDM. The series is classed as cell-based. The settings on record: HIV-1ADA MOI 0.1, 10 days. Here is the method: MDMs were plated in clear flat-bottom 24-well plates at a density of 0.8×10^6 cells/well. […] Following treatment, cells were washed with PBS and cultured in fresh culture medium with half-media replacement every other day. At 1, 5, 10, 15, 20, 25 and 30 days after the treatment, the cells were infected with HIV-1ADA (a macrophage tropic viral strain) at a multiplicity of infection (MOI) of 0.1 infectious particles per cell for 16 hours. Following infection period, MDM were washed with PBS and replenished with fresh media. Cells were cultured for next ten days with half-media replacement every other day, and the full media replacement on the 8th day. The culture media was collected on the 10th day after infection for the measurement of HIV-1 RT activity (Kalter, et al., J. Immunol. (1991) 146:3396-3404; Nowacek, et al., J. Neuroimmune Pharm. (2010) 5:592-601). The extent of infection was expressed as a percent of RT activity by infected MDM that were not treated. Cells were fixed in 2% PFA, and expression of HIV-1 p24 antigen was determined by immunocytochemistry (Nowacek, et al., J. Neuroimmune Pharm. (2010) 5:592-601).
MDM were plated in clear flat-bottom 96-well plates (0.08×10^6 cells/well). […] After 4 hours of viral challenge, cells were washed and given fresh media containing drug (0.1-1000 nM). Subsequently, cell supernatants were collected 10 days later and assayed for HIV-1 RT activity as described above.

In the next series the test system is HIV-1. Particulars: protein-adjusted; cited from earlier work.
For series [1] the following is noted: after oral administration; cited from earlier work.
The next series is described as follows: 1-octanol solubility. Particulars: organic solvent or mixture.
Series [2] is described as follows: Plasma cleavage drug hydrolysis kinetics. The series is classed as in vitro ADME, mouse, rat, rabbit, monkey, dog, and human. Particulars: for prodrug cleavage in plasma: plasma of all species tested. Here is the method:
The hydrolysis kinetics of MCAB, M2CAB and M3CAB and relative release of active drug were determined in plasma of different species (mouse, rat, rabbit, monkey, dog, and human). MCAB, M2CAB or M3CAB (1 μM) were incubated in 100 μL plasma at 37° C. At different time points, 1 mL acidified methanol (0.1% formic acid and 25 mM ammonium formate to avoid further prodrug hydrolysis) was added to each sample and vortexed for 3 minutes to stop the reaction. For 0-minute time-point, a 100 μL ice cold plasma was spiked with prodrug stock solution, and 1 ml of ice cold acidic methanol was added immediately. Following the addition of methanol, samples were centrifuged at 15,000 g for 10 minutes, and collected supernatant was analyzed for drug content by UPLC-MS/MS (Waters Xevo TQ-XS).

Series [3] can be described thus: Chemical stability at acidic, neutral and basic pH. The series is classed as physicochemical. Particulars: for prodrug hydrolysis: 24 hours. Here is the method:
The stability of MCAB, M2CAB and M3CAB in acidic (pH 1), basic (pH 11) and neutral (pH 7) conditions at room temperature and elevated temperature (37° C.) was determined. The stock solution of each prodrug was prepared in DMSO at a concentration of 1 mg/mL. For acidic, basic and neutral assays, 100 μL of stock solution of each prodrug was added to 1900 μL of 0.1 M HCl, 0.1 M NaOH or optima-grade water (pH adjusted to 7), respectively. Samples were then incubated at room temperature and […] under shaking conditions (Innova® 42 shaker incubator, 150 rpm). Samples were withdrawn at 0, 2, 4, 8 and 24 hours and stored at −80° C. Later, samples were analyzed for drug content by UPLC-UV/Vis.

The nature of series [4]: PK and biodistribution in NSG mice. The series is classed as in vivo.
Protocol: Drug levels from plasma and tissues were assayed by UPLC-MS/MS. Drug levels in plasma were monitored weekly.
Following injection, blood samples were collected into heparinized tubes at day 1 post-administration and then weekly up to day 364 by cheek puncture (submandibular vein, MEDIpoint, Inc., Mineola, NY). Collected blood (25 μL) was immediately diluted into 1 mL ACN and stored at −80° C. until drug measurements. Remaining blood samples were centrifuged at 2,000 g for 8 minutes for plasma collection. Plasma was collected and stored at −80° C. for analysis of drug contents. At day 14, 28, 42 and 364 following administration, animals were humanly euthanized by isoflourane inhalation, followed by cervical dislocation. Spleen, lymph nodes, liver, lung, gut, kidney, brain, vaginal tissue, and rectal tissue were collected for quantitation of CAB and prodrug concentrations. CAB, MCAB, M2CAB and M3CAB were quantitated in mouse plasma, blood and tissues by UPLC-MS/MS using a Waters ACQUITY H-class UPLC (Waters, Milford, MA, USA) connected to a Xevo TQ-S micro mass spectrometer. All solvents for sample processing and UPLC-MS/MS analysis were LCMS-grade (Fisher). For plasma and blood samples, 25 μL of sample was added into 1 mL acetonitrile (ACN) spiked with 10 μL internal standard (IS). d3-Dolutegravir (d3-DTG), myristoylated dolutegravir (MDTG), and stearoylated darunavir (SDRV), at a final concentration of 200, 20 and 20 ng/mL, respectively, were used as ISs for CAB, MCAB and M2CAB/M3CAB analyses, respectively. Samples were vortexed and centrifuged at 17,000×g for 10 minutes at 4° C. […] For tissue drug quantitation, 3-200 mg of sample was homogenized in 4-29 volumes of 0.1% v/v formic acid and 2.5 mM ammonium formate containing 90% methanol. […] For CAB quantitation, chromatographic separation of 10 μL CAB sample was performed on a Waters ACQUITY UPLC BEH Shield RP18 column (1.7 μm, 2.1 mm×100 mm) using a 10-minute gradient of mobile phase A (7.5 mM ammonium formate in water, adjusted to pH 3 using formic acid) and mobile phase B (100% ACN) at a flow rate of 0.25 mL/minute. […]
[5] abbreviates: Human immunodeficiency virus 1, 240 h.

Take `C[C@H]1CO[C@@H]2Cn3cc(C(=O)NCc4ccc(F)cc4F)c(=O)c(O)c3C(=O)N12` [CAB, cabotegravir]: the solubility at 24 h in the series “Aqueous solubility” is 12.1 ± 0.41 µg/mL (≈ 29.9 µM). Also, the response in the series on HIV-1ADA (setting [5]) was half-maximal at 28.4 nM (EC50). Also, in the series with HIV-1, the “4×PA-IC90” value is 0.66 µg/mL and 0.664 µg/mL; the PA-IC90 is 0.166 µg/mL. For the same compound, the systemic half-life result in series [1] is given as “approximately 40 hours”. Further, the solubility in the series “1-octanol solubility” amounted to 90 ± 2 µg/mL (≈ 222 µM).
With `CCCCCCCCCCCCCCCCCC(=O)Oc1c2n(cc(C(=O)NCc3ccc(F)cc3F)c1=O)C[C@H]1OC[C@H](C)N1C2=O` [M2CAB], in the series “Aqueous solubility”, the concentration in solution (solubility at 24 h) was 1.91 ± 0.23 µg/mL (≈ 2.84 µM). Moreover, the “prodrug cleavage in plasma” value in series [2] (by 2 hours, average) was 75%; in series [2] (by 6 hours, average), 80%. The prodrug hydrolysis is on record as more than 95% in series [3] (37° C., acidic (pH 1)); 28% in series [3] (37° C., neutral (pH 7)); 19% in series [3] (room temperature, acidic (pH 1)); “completely hydrolyzed” in series [3] (room temperature, basic (pH 11)); 24% in series [3] (room temperature, neutral (pH 7)). Also, the “time to complete hydrolysis” value in series [3] (37° C., basic (pH 11)) is not above 2 h. In addition, in the series with HIV-1ADA (setting [5]), a half-maximal effect (EC50) was put at 44.7 nM. Moreover, in series [4] (female, NSG, mouse, whole blood, intramuscular, 45 mg/kg CAB-equivalents, day 1 post-injection, read-out: prodrug concentration in blood), the concentration at 1 day is 31.3 ng/mL. The solubility in “1-octanol solubility” was 2640 ± 20 µg/mL (≈ 3930 µM).
In turn, `CCCCCCCCCCCCCCCCCCCCCC(=O)Oc1c2n(cc(C(=O)NCc3ccc(F)cc3F)c1=O)CC1OCC(C)N1C2=O` (centres unmarked) [M3CAB] gave an aqueous solubility in “Aqueous solubility” of 1.51 ± 0.7 µg/mL (≈ 2.07 µM). The “prodrug remaining in plasma” value in series [2] (after 24 hours of incubation) is listed as “around 50%”. The same compound had an EC50 in the series on HIV-1ADA of 51.1 nM.
In “Aqueous solubility”, `CCCCCCCCCCCCCC(=O)Oc1c2n(cc(C(=O)NCc3ccc(F)cc3F)c1=O)CC1OCC(C)N1C2=O` (centres unmarked) [MCAB] gave an aqueous solubility of 2.83 ± 1.37 µg/mL (≈ 4.6 µM). The “prodrug cleavage in plasma” value in series [2] (within 30 minutes, 37° C., 1 μM) is reported as “more than 85%”. Also, the EC50 in the series with HIV-1ADA was 34.2 nM. For the same compound, the “prodrug concentration in blood” value in series [4] (day 1 post-injection) came to 22 ng/mL. Moreover, in series [4] (day 364), the “prodrug levels in tissues” value was “undetectable”.
